These are literature values, as cited in patent publication US20070092568A1 (priority 2005, published 2007).

Counter-ions that a name gives are not always drawn.

Turning to `COc1ccc2c3c1O[C@H]1C[C@@H](O)C=C[C@@]31CCN(C)C2` [Galantamine hydrobromide, (4aS,6R,8aS)-4a,5,9,10,11,12-hexahydro-3-methoxy-11-methyl-6H-benzofuro[3a,3,2-ef][2]benzazepin-6-ol], the Solubility in water entry was “sparingly soluble in water”.
